# From PubChem BioAssay (NCI)
# Several values for one entry are separate records, joined by “and”; a condition that tells them apart may be missing. Identical values can stand only once.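 Five concentrations, 48 hours, 96-well plates. Abbreviation: GI50, concentration required for 50% inhibition of growth. Definition used: TGI = concentration required for complete inhibition of growth.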
# Assays:
# Test in all cases: NCI tumour cell line growth inhibition, 48 h
# 786-0 renal = test system: 786-0 renal
# A498 renal = test system: A498 renal
# A549 NSCLC = test system: A549 NSCLC
# ACHN renal = test system: ACHN renal
# BT-549 breast = test system: BT-549 breast
# CAKI-1 renal = test system: CAKI-1 renal
# CCRF-CEM leukemia = test system: CCRF-CEM leukemia
# COLO 205 colon = test system: COLO 205 colon
# DU-145 prostate = test system: DU-145 prostate
# EKVX NSCLC = test system: EKVX NSCLC
# HCC-2998 colon = test system: HCC-2998 colon
# HCT-116 colon = test system: HCT-116 colon
# HCT-15 colon = test system: HCT-15 colon
# HL-60(TB) leukemia = test system: HL-60(TB) leukemia
# HOP-62 NSCLC = test system: HOP-62 NSCLC
# HOP-92 NSCLC = test system: HOP-92 NSCLC
# HS 578T breast = test system: HS 578T breast
# HT29 colon = test system: HT29 colon
# IGROV1 ovarian = test system: IGROV1 ovarian
# K-562 leukemia = test system: K-562 leukemia
# KM12 colon = test system: KM12 colon
# LOX IMVI melanoma = test system: LOX IMVI melanoma
# M14 melanoma = test system: M14 melanoma
# MALME-3M melanoma = test system: MALME-3M melanoma
# MCF7 breast = test system: MCF7 breast
# MDA-MB-231 breast = test system: MDA-MB-231 breast
# MDA-MB-435 = test system: MDA-MB-435
# MDA-MB-468 breast = test system: MDA-MB-468 breast
# MOLT-4 leukemia = test system: MOLT-4 leukemia
# NCI-H226 lung = test system: NCI-H226 lung
# NCI-H23 lung = test system: NCI-H23 lung
# NCI-H460 lung = test system: NCI-H460 lung
# NCI-H522 lung = test system: NCI-H522 lung
# NCI/ADR-RES ovarian = test system: NCI/ADR-RES ovarian
# OVCAR-3 ovarian = test system: OVCAR-3 ovarian
# OVCAR-4 ovarian = test system: OVCAR-4 ovarian
# OVCAR-5 ovarian = test system: OVCAR-5 ovarian
# OVCAR-8 ovarian = test system: OVCAR-8 ovarian
# PC-3 prostate = test system: PC-3 prostate
# RPMI-8226 leukemia = test system: RPMI-8226 leukemia
# RXF 393 renal = test system: RXF 393 renal
# SF-268 CNS = test system: SF-268 CNS
# SF-295 CNS = test system: SF-295 CNS
# SF-539 CNS = test system: SF-539 CNS
# SK-MEL-2 melanoma = test system: SK-MEL-2 melanoma
# SK-MEL-28 melanoma = test system: SK-MEL-28 melanoma
# SK-MEL-5 melanoma = test system: SK-MEL-5 melanoma
# SK-OV-3 ovarian = test system: SK-OV-3 ovarian
# SN12C renal = test system: SN12C renal
# SNB-19 CNS = test system: SNB-19 CNS
# SNB-75 CNS = test system: SNB-75 CNS
# SR leukemia = test system: SR leukemia
# SW-620 colon = test system: SW-620 colon
# T-47D breast = test system: T-47D breast
# TK-10 renal = test system: TK-10 renal
# U251 CNS = test system: U251 CNS
# UACC-257 melanoma = test system: UACC-257 melanoma
# UACC-62 melanoma = test system: UACC-62 melanoma
# UO-31 renal = test system: UO-31 renal
smiles,measurement,setting,value
O=C(c1cc2cc(OCCCN3CCC3)ccc2[nH]1)N1C[C@@H](CCl)c2c1cc(OCc1ccccc1)c1ccccc21,GI50,786-0 renal,0.293 µM and 0.266 µM
same,TGI,786-0 renal,0.913 µM and 1.71 µM
same,GI50,A498 renal,0.235 µM
same,TGI,A498 renal,0.633 µM
same,GI50,A549 NSCLC,0.157 µM and 0.161 µM
same,TGI,A549 NSCLC,0.626 µM and 2.54 µM
same,GI50,ACHN renal,0.0785 µM and 0.0346 µM
same,TGI,ACHN renal,0.248 µM and 0.0967 µM
same,GI50,BT-549 breast,0.384 µM and 0.53 µM
same,TGI,BT-549 breast,1.72 µM and 2.19 µM
same,GI50,CAKI-1 renal,0.289 µM and 0.193 µM
same,TGI,CAKI-1 renal,1.5 µM and 1.68 µM
same,GI50,CCRF-CEM leukemia,0.845 µM and 0.408 µM
same,TGI,CCRF-CEM leukemia,7.75 µM and 17.5 µM
same,GI50,COLO 205 colon,0.629 µM and 0.28 µM
same,TGI,COLO 205 colon,1.99 µM and 0.644 µM
same,GI50,DU-145 prostate,0.254 µM and 0.082 µM
same,TGI,DU-145 prostate,1.25 µM and 2.92 µM
same,GI50,EKVX NSCLC,0.271 µM and 0.371 µM
same,TGI,EKVX NSCLC,1.37 µM and 0.956 µM
same,GI50,HCC-2998 colon,0.255 µM and 0.319 µM
same,TGI,HCC-2998 colon,1.23 µM and 0.66 µM
same,GI50,HCT-116 colon,0.147 µM and 0.637 µM
same,TGI,HCT-116 colon,0.443 µM and 2.46 µM
same,GI50,HCT-15 colon,0.171 µM and 0.134 µM
same,TGI,HCT-15 colon,0.838 µM and 0.787 µM
same,GI50,HL-60(TB) leukemia,1.22 µM and 0.442 µM
same,TGI,HL-60(TB) leukemia,3.56 µM and 4.05 µM
same,GI50,HOP-62 NSCLC,0.214 µM and 0.139 µM
same,TGI,HOP-62 NSCLC,0.694 µM and 0.647 µM
same,GI50,HOP-92 NSCLC,1.16 µM and 0.504 µM
same,TGI,HOP-92 NSCLC,3.28 µM and 1.83 µM
same,GI50,HS 578T breast,1.25 µM and 0.746 µM
same,TGI,HS 578T breast,3.98 µM and 5.99 µM
same,GI50,HT29 colon,0.285 µM and 0.273 µM
same,TGI,HT29 colon,1.35 µM and 2 µM
same,GI50,IGROV1 ovarian,0.31 µM and 0.189 µM
same,TGI,IGROV1 ovarian,1.47 µM and 1.33 µM
same,GI50,K-562 leukemia,0.302 µM and 0.251 µM
same,TGI,K-562 leukemia,19.8 µM
same,GI50,KM12 colon,0.731 µM and 0.813 µM
same,TGI,KM12 colon,2.22 µM and 10.1 µM
same,GI50,LOX IMVI melanoma,0.132 µM and 0.0564 µM
same,TGI,LOX IMVI melanoma,0.427 µM and 0.451 µM
same,GI50,M14 melanoma,0.283 µM and 0.212 µM
same,TGI,M14 melanoma,1.21 µM and 0.653 µM
same,GI50,MALME-3M melanoma,0.481 µM and 0.276 µM
same,TGI,MALME-3M melanoma,1.79 µM and 0.557 µM
same,GI50,MCF7 breast,0.0105 µM and 0.00322 µM
same,TGI,MCF7 breast,0.324 µM and 0.851 µM
same,GI50,MDA-MB-231 breast,0.691 µM and 0.544 µM
same,TGI,MDA-MB-231 breast,2.1 µM and 1.36 µM
same,GI50,MDA-MB-435,1.05 µM and 0.331 µM
same,TGI,MDA-MB-435,2.27 µM and 0.739 µM
same,GI50,MDA-MB-468 breast,0.0438 µM
same,TGI,MDA-MB-468 breast,0.13 µM
same,GI50,MOLT-4 leukemia,0.339 µM and 0.272 µM
same,TGI,MOLT-4 leukemia,4.56 µM and 3.87 µM
same,GI50,NCI-H226 lung,1.21 µM and 0.211 µM
same,TGI,NCI-H226 lung,4.34 µM and 0.631 µM
same,GI50,NCI-H23 lung,0.186 µM and 0.073 µM
same,TGI,NCI-H23 lung,0.619 µM and 0.318 µM
same,GI50,NCI-H460 lung,0.121 µM and 0.0171 µM
same,TGI,NCI-H460 lung,0.469 µM and 1.12 µM
same,GI50,NCI-H522 lung,1.23 µM and 0.384 µM
same,TGI,NCI-H522 lung,2.87 µM and 0.929 µM
same,GI50,NCI/ADR-RES ovarian,0.252 µM
same,TGI,NCI/ADR-RES ovarian,1.4 µM
same,GI50,OVCAR-3 ovarian,1.13 µM and 0.497 µM
same,TGI,OVCAR-3 ovarian,2.62 µM and 1.61 µM
same,GI50,OVCAR-4 ovarian,1.13 µM and 0.536 µM
same,TGI,OVCAR-4 ovarian,3.01 µM and 1.69 µM
same,GI50,OVCAR-5 ovarian,0.302 µM and 0.345 µM
same,TGI,OVCAR-5 ovarian,1.04 µM and 1.06 µM
same,GI50,OVCAR-8 ovarian,0.274 µM and 0.242 µM
same,TGI,OVCAR-8 ovarian,1.44 µM and 1.53 µM
same,GI50,PC-3 prostate,0.294 µM and 0.367 µM
same,TGI,PC-3 prostate,2.63 µM and 4.6 µM
same,GI50,RPMI-8226 leukemia,0.941 µM and 0.496 µM
same,TGI,RPMI-8226 leukemia,9.53 µM and 9.5 µM
same,GI50,RXF 393 renal,0.362 µM and 0.234 µM
same,TGI,RXF 393 renal,1.63 µM and 0.509 µM
same,GI50,SF-268 CNS,0.437 µM and 0.332 µM
same,TGI,SF-268 CNS,2.42 µM and 2.04 µM
same,GI50,SF-295 CNS,0.154 µM and 0.0461 µM
same,TGI,SF-295 CNS,0.447 µM and 0.23 µM
same,GI50,SF-539 CNS,0.225 µM and 0.295 µM
same,TGI,SF-539 CNS,1 µM and 0.663 µM
same,GI50,SK-MEL-2 melanoma,1.09 µM and 0.374 µM
same,TGI,SK-MEL-2 melanoma,2.32 µM and 0.659 µM
same,GI50,SK-MEL-28 melanoma,0.507 µM and 0.329 µM
same,TGI,SK-MEL-28 melanoma,1.8 µM and 0.749 µM
same,GI50,SK-MEL-5 melanoma,0.322 µM and 0.272 µM
same,TGI,SK-MEL-5 melanoma,1.3 µM and 0.537 µM
same,GI50,SK-OV-3 ovarian,0.401 µM and 0.453 µM
same,TGI,SK-OV-3 ovarian,1.64 µM and 1.72 µM
same,GI50,SN12C renal,0.345 µM and 0.357 µM
same,TGI,SN12C renal,1.5 µM and 2.11 µM
same,GI50,SNB-19 CNS,0.687 µM and 0.333 µM
same,TGI,SNB-19 CNS,2.33 µM and 2.4 µM
same,GI50,SNB-75 CNS,1.02 µM
same,TGI,SNB-75 CNS,2.21 µM
same,GI50,SR leukemia,0.0974 µM and 0.0439 µM
same,TGI,SR leukemia,5.01 µM
same,GI50,SW-620 colon,0.234 µM and 0.258 µM
same,TGI,SW-620 colon,1.56 µM and 1.28 µM
same,GI50,T-47D breast,0.375 µM and 0.202 µM
same,TGI,T-47D breast,1.69 µM and 1.04 µM
same,GI50,TK-10 renal,1.53 µM and 0.562 µM
same,TGI,TK-10 renal,3 µM and 1.42 µM
same,GI50,U251 CNS,0.247 µM and 0.0612 µM
same,TGI,U251 CNS,1.03 µM and 2.39 µM
same,GI50,UACC-257 melanoma,0.792 µM
same,TGI,UACC-257 melanoma,2.3 µM
same,GI50,UACC-62 melanoma,0.145 µM and 0.062 µM
same,TGI,UACC-62 melanoma,0.481 µM and 0.325 µM
same,GI50,UO-31 renal,0.171 µM and 0.264 µM
same,TGI,UO-31 renal,0.449 µM and 0.681 µM
